Active and inactive are the calls of the source.
Columns and labels:
[1] = target: Cyclin-dependent kinase 19 (Homo sapiens, UniProt Q9BWU1); assay: Navigating the Kinome. Panel member name: CDC2L6; type: functional
[2] = target: Dual specificity protein kinase CLK4 (Homo sapiens, UniProt Q9HAZ1); type: functional
[3] = target: Vascular endothelial growth factor receptor 2 (Homo sapiens, UniProt P35968); type: functional
[4] = target: Macrophage colony-stimulating factor 1 receptor (Homo sapiens, UniProt P07333); type: functional;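 note: value comes from the Navigating the Kinome screening panel, CSF1R member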
[5] = target: T1, Sphingosine 1-phosphate receptor 4 (Homo sapiens, UniProt O95977); assay: Fluorescence dose response cell-based high throughput screening assay for antagonists of the Sphingosine 1-Phosphate Receptor 4 (S1P4). [Related pubchem assays: 1524 (Confirmation in triplicates.), 1510 (Primary screen.)]; type: functional
T1 sequence (O95977 whole entry): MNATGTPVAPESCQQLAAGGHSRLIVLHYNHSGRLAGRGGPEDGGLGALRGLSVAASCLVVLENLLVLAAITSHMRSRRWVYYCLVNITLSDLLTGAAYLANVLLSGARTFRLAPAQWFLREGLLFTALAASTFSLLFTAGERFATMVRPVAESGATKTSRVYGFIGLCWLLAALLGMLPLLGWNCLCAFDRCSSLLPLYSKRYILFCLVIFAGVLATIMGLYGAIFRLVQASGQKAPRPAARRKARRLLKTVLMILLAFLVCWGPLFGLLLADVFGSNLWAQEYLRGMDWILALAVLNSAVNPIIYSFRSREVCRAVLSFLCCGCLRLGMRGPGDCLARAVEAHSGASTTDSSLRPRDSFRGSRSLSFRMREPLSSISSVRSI

[6] = control 3'UTR Renilla luciferase suppression, dose response, counter-screen for Shn3 inhibitor project, cell-based, Clone20-Shn3RL, cherry-picked (AID 624133); type: functional
[7] = microbe, parasite or virus in culture; type: functional; conditions: Mycobacterium tuberculosis
[8] = reduction of endogenous Shn3 mRNA, dose response, qPCR, Clone20 cells, cherry-pick (AID 743415); type: functional, cell-based
[9] = HepG2 cell cytotoxicity, dose response, cytotoxicity control for Shn3 inhibitor project, CellTiter-Glo, cherry-picked (AID 624134); type: functional, cell-based
[10] = target: T2, Replicative DNA helicase DnaB (Mycobacterium tuberculosis, UniProt P9WMR3); assay: DnaB intein splicing inhibitors, dose response, biochemical, cell-free fluorescence (AID 449749); type: functional
T2 sequence (P9WMR3 whole entry): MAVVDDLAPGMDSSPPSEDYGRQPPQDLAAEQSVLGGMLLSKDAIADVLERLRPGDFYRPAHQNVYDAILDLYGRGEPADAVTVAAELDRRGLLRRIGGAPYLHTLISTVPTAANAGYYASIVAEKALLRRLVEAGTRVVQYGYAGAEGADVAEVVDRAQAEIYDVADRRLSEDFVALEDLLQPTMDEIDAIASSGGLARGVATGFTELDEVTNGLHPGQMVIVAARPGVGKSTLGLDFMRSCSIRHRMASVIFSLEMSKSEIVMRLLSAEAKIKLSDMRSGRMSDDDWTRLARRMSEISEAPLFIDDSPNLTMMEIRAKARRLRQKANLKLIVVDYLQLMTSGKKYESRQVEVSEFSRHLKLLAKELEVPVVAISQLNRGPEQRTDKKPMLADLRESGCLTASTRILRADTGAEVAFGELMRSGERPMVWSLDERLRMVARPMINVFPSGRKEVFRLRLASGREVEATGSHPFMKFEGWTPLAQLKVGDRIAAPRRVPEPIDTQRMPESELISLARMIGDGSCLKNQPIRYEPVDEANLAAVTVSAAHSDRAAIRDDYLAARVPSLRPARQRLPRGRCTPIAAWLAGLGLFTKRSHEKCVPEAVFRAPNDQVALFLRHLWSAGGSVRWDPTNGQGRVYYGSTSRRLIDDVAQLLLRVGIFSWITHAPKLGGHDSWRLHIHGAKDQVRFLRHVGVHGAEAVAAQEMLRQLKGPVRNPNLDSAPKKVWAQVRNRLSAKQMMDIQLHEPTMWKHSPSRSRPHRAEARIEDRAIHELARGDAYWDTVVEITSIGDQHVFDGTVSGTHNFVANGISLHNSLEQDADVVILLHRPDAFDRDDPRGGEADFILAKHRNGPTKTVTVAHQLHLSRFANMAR

Paired box protein Pax-8 = Paired box protein Pax-8 (Homo sapiens, UniProt Q06710); assay: inhibitors of PAX8-driven TPO luciferase reporter, dose response, RMG-I cells, cherry-pick (AID 687027); type: functional, cell-based;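 note: luciferase reporter driven by Pax8 target thyroperoxidase promoter measured by SteadyGlo luminescence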
[11] = reduction of Shn3 3'UTR firefly luciferase signal, dose response, Schnurri-3 inhibitor project, cell-based, Clone20 osteoblasts, cherry-pick, set 2 (AID 720490); type: functional;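 note: actives lower the luminescence signal as inhibitors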
[12] = Shn3 3'UTR reporter inhibitors, dose response, cell-based, Clone20 osteoblasts, firefly luciferase, cherry-picked (AID 624132); type: functional;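 note: firefly luciferase luminescence from reporter carrying the Shn3 3'UTR in osteoblasts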
[13] = C. albicans growth with fluconazole, confirmation, fluorescence, retest (AID 2467); type: functional, cell-based
Protein RecA = target: T3, Protein RecA (Mycobacterium tuberculosis, UniProt P9WHJ3); assay: Fluorescence Cell-Free Homogeneous Dose Retest to Identify Inhibitors of RecA-Intein Splicing Activity. [Related pubchem assays (depositor defined):AID2097, AID2223, AID489010, AID492950]; type: functional
T3 sequence (P9WHJ3 whole entry): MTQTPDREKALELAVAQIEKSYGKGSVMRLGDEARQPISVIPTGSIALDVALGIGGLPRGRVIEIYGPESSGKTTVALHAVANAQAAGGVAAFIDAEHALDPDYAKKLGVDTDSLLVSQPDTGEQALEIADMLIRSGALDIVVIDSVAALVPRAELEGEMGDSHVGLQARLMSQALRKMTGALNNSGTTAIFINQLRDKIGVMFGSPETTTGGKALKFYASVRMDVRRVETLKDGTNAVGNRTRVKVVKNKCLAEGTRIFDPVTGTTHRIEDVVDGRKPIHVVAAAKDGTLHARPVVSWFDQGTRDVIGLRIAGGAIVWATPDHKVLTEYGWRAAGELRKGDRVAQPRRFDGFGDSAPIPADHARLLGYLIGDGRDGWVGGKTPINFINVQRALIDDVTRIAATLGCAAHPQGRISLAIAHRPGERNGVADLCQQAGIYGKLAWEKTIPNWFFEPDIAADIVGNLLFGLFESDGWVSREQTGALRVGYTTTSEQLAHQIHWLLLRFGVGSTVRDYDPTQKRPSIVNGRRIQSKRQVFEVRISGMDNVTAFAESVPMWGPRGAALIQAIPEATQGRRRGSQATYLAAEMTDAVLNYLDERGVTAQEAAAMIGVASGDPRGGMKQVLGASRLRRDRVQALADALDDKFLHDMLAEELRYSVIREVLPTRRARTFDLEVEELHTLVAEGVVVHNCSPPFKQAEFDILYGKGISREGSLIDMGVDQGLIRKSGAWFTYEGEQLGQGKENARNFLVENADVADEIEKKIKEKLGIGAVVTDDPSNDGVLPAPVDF

[14] = A Cell Based Secondary Assay to Explore Cytotoxicity in HepG2 Cells of Compounds that Modulate Mycobacterium tuberculosis in Media Containing Glycerol versus Media without Glycerol (2).; type: functional
[15] = NIH-3T3 fibroblast cytotoxicity, dose response, cytotoxicity control, cell-based, fluorescence, Alamar Blue, secondary assay (AID 2327); type: functional;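 note: NIH-3T3 mouse fibroblasts cultured with fluconazole at 8 µg/mL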
[16] = target: Sphingosine 1-phosphate receptor 1 (Homo sapiens, UniProt P21453); type: functional;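 note: Tango beta-arrestin reporter U2OS cells stimulated with S1P near its EC80; inhibitor potency meaning antagonism of receptor activation by the natural agonist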
[17] = inhibitors of intracellular T. cruzi replication, confirmation, NIH3T3 host cells, beta-gal luminescence (AID 2044); type: functional, cell-based;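 note: intracellular parasites grown in NIH/3T3 mouse fibroblasts as host cells; luminescent beta-galactosidase reporter signal from transgenic T. cruzi replicating inside host cells; inhibitors lower the luminescence signal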
[18] = cytotoxicity toward NIH3T3 fibroblasts, dose response, counter-screen, cell-based, ATP luminescence, mouse fibroblasts (AID 2010); type: functional;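 note: cells exposed to compound for about 90 hours before reading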
[19] = inhibitors of control Renilla luciferase reporter, dose response, counter-screen for Shn3 3'UTR targeting project, Clone20-Shn3RL cells, dual-Glo, cherry-pick, set 2 (AID 720724); type: functional, cell-based; conditions: Dual-Go Shn3RL
[20] = Fluorescence-based cell-based high throughput dose response assay for inhibitors of the interaction of nucleotide-binding oligomerization domain containing 2 (NOD2) and the receptor-interacting serine-threonine kinase 2 (RIPK2).; type: functional; conditions: Homo sapiens
[21] = Vero cell cytotoxicity, cytotoxicity control for M. tuberculosis inhibitor project, purified and synthesized samples, set 3 (AID 504684); type: functional
[22] = A Cell Based Secondary Assay to Explore Cytotoxicity in THP-1 Cells of Compounds that Modulate Mycobacterium tuberculosis in Media Containing Glycerol versus Media without Glycerol (2).; type: functional
[23] = target: Protein disulfide-isomerase (Homo sapiens, UniProt P07237); assay: PDI inhibitors, insulin aggregation turbidity, dose response, biochemical, absorbance, cherry-picked samples (AID 602350); type: functional
[24] = intracellular Trypanosoma cruzi inhibitors in host cells – cell-based, plate reader, cherry-pick samples, set 3, dose response (AID 651818); type: functional;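 note: compounds incubated with infected cells for about four days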
[25] = SAR analysis of small molecule inhibitors of Apaf-1 using a LZ-Caspase-9/Caspase-3 Fluorescent Selectivity assay - Set 2.; type: functional; conditions: read-out: IC50_Mean
[26] = target: T4, Apoptotic protease-activating factor 1 (Homo sapiens, UniProt O14727); assay: SAR analysis of small molecule Inhibitors of Apaf-1 in a Fluorescent assay - set 2.; type: functional; conditions: read-out: IC50_Mean
T4 sequence (O14727 whole entry): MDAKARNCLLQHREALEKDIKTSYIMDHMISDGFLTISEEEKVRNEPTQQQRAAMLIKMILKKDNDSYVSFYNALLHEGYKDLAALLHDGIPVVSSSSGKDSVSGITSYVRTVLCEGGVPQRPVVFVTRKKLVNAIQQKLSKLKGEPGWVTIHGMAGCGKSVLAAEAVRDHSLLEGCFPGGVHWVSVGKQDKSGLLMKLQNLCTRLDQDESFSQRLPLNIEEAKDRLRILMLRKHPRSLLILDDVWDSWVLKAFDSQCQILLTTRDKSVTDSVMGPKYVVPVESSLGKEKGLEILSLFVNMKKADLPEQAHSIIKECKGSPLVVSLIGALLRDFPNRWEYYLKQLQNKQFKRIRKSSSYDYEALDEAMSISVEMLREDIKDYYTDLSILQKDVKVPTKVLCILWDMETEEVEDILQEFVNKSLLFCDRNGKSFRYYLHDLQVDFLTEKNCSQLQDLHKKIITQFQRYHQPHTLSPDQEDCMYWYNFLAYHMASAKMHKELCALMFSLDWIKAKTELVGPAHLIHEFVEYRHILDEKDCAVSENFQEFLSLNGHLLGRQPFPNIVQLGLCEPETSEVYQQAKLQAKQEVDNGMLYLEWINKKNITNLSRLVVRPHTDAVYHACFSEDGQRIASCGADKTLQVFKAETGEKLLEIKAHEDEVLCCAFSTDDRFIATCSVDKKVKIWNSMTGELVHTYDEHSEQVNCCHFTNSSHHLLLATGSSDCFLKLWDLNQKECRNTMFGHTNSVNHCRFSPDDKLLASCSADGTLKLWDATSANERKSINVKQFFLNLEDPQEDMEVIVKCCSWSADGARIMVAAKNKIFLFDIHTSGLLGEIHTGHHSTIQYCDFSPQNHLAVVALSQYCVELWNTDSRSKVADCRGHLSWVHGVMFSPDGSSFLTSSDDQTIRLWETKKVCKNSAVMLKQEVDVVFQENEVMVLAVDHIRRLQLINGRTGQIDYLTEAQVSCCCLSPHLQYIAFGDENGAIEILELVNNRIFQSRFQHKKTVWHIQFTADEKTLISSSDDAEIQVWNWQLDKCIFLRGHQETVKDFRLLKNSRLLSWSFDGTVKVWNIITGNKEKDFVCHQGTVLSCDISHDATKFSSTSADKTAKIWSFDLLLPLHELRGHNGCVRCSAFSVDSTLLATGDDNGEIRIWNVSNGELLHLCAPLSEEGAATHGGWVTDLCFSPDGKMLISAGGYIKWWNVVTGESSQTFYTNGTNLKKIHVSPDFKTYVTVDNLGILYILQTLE

[27] = SAR analysis of small molecule activators of Apaf-1 using a LZ-Caspase-9/Caspase-3 Fluorescent Selectivity assay - Set 2.; type: functional; conditions: read-out: EC50_Mean
[28] = target: T4, Apoptotic protease-activating factor 1; assay: SAR analysis of small molecule Activators of Apaf-1 in a Fluorescent assay - set 2.; type: functional; conditions: read-out: EC50_Mean
Aurora kinase A = Aurora kinase A (Homo sapiens, UniProt O14965); type: functional;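 note: value from the Navigating the Kinome kinase panel profiling, panel entry STK6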
Aurora kinase B = Aurora kinase B (Homo sapiens, UniProt Q96GD4); type: functional
[29] = target: ALK tyrosine kinase receptor (Homo sapiens, UniProt Q9UM73); type: functional;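 note: ALK tested as one member of a kinase panel screen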
[30] = target: Cell division cycle 7-related protein kinase (Homo sapiens, UniProt O00311); type: functional;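 note: value obtained from a kinome-wide kinase panel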

Chain of Vascular endothelial growth factor receptor 2 (P35968 whole entry): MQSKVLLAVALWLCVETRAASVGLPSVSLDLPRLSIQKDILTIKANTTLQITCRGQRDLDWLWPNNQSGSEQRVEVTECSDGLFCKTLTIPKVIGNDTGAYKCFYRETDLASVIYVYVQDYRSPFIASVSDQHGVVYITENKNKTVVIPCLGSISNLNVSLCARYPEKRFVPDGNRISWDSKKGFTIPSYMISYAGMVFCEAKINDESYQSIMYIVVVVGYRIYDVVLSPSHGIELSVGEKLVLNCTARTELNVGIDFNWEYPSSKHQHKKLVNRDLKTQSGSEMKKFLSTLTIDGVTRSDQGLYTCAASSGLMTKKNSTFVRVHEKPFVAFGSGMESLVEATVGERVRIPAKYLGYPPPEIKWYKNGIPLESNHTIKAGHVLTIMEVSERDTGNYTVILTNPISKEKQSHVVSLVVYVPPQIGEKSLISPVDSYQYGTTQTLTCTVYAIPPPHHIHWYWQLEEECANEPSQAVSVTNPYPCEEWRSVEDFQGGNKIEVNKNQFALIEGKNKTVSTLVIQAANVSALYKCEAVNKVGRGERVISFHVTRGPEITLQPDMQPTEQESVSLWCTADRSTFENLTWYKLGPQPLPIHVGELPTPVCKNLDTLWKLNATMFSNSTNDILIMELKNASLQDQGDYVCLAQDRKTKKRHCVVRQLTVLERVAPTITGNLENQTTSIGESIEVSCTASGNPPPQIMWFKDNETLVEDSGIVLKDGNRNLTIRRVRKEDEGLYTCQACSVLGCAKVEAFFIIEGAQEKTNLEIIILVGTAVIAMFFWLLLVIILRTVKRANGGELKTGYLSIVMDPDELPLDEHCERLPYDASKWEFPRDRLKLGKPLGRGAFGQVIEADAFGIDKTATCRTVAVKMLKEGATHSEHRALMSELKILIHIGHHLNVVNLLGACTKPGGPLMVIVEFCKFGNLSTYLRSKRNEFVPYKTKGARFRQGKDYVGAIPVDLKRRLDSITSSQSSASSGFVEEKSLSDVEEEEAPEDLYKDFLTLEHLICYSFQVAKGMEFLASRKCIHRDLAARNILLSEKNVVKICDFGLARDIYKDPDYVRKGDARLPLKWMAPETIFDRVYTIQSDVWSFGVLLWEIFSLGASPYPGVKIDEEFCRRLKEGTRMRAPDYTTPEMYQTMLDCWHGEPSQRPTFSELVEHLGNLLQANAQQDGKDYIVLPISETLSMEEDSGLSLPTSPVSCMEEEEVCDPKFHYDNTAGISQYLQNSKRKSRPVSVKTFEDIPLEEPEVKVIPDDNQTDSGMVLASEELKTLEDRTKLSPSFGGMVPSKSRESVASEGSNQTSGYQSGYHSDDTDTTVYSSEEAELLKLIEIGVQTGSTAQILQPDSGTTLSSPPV
Chain of Macrophage colony-stimulating factor 1 receptor (P07333 whole entry): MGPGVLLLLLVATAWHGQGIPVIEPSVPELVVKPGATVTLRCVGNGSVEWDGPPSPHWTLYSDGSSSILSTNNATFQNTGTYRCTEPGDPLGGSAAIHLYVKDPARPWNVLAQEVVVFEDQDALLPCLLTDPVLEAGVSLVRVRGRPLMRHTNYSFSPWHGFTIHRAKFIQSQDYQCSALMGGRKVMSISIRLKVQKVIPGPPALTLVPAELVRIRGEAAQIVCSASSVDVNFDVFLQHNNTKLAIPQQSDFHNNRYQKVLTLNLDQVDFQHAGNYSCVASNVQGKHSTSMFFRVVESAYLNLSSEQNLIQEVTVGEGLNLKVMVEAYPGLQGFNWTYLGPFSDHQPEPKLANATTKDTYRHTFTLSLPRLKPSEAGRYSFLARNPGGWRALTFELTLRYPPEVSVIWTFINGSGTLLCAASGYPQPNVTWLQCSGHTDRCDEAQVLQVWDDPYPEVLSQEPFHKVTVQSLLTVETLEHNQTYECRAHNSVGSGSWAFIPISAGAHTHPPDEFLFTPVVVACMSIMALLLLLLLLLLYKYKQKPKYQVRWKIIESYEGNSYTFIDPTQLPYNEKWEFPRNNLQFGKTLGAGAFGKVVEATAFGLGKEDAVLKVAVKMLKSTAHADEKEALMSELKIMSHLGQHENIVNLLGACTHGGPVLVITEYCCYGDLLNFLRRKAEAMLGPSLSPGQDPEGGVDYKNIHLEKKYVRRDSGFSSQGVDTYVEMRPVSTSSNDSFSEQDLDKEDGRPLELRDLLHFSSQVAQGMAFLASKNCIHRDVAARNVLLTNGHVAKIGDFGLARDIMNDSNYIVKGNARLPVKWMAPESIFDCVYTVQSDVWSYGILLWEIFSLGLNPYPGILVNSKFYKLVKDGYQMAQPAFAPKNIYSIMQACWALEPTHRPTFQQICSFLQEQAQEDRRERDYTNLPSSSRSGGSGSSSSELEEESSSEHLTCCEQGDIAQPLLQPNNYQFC
Chain of Cyclin-dependent kinase 19 (Q9BWU1 whole entry): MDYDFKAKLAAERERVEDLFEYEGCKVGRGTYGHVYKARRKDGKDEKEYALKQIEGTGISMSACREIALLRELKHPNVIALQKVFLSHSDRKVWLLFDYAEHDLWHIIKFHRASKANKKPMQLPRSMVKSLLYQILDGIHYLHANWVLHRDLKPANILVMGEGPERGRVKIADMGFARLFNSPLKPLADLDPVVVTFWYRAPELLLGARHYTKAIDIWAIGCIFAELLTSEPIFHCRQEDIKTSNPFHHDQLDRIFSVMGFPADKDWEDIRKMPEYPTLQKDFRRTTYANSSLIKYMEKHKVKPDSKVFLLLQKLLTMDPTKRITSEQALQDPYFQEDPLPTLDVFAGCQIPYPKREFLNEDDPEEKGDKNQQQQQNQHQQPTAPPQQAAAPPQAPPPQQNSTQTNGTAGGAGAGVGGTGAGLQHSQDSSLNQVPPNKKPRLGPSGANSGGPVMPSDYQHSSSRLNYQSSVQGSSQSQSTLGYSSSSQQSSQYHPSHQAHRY
Chain of Paired box protein Pax-8 (Q06710 whole entry): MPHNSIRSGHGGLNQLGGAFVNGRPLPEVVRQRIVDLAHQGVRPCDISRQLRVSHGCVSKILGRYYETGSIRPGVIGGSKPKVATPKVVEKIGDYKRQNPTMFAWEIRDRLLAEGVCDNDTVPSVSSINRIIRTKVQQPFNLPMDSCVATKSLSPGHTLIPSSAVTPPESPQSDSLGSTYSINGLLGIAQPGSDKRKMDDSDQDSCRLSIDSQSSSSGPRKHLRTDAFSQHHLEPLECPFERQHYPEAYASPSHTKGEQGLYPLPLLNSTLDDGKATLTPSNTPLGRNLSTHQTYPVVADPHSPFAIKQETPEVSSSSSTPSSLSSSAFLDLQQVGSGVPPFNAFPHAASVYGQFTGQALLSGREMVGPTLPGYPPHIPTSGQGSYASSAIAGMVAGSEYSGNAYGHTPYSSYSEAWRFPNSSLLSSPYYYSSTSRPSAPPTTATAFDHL
Chain of Aurora kinase B (Q96GD4 whole entry): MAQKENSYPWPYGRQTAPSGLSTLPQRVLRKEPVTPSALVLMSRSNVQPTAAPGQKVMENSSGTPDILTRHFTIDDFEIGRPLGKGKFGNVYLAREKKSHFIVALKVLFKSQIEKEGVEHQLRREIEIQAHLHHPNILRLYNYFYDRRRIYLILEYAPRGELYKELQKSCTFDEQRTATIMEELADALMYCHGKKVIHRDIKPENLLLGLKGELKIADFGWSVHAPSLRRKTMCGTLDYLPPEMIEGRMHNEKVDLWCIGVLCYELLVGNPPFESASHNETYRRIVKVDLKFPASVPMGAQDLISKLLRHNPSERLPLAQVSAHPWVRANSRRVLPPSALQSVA
Chain of Sphingosine 1-phosphate receptor 1 (P21453 whole entry): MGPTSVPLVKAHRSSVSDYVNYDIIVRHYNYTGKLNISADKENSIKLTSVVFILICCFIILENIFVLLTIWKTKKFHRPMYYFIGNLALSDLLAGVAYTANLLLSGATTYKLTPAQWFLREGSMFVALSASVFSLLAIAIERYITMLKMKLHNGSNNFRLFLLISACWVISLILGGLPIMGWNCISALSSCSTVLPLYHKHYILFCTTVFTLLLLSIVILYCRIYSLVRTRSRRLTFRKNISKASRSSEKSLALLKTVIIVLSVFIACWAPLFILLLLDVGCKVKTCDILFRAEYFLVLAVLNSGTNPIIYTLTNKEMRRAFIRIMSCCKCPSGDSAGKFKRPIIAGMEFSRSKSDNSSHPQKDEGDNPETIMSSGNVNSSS
Chain of Dual specificity protein kinase CLK4 (Q9HAZ1 whole entry): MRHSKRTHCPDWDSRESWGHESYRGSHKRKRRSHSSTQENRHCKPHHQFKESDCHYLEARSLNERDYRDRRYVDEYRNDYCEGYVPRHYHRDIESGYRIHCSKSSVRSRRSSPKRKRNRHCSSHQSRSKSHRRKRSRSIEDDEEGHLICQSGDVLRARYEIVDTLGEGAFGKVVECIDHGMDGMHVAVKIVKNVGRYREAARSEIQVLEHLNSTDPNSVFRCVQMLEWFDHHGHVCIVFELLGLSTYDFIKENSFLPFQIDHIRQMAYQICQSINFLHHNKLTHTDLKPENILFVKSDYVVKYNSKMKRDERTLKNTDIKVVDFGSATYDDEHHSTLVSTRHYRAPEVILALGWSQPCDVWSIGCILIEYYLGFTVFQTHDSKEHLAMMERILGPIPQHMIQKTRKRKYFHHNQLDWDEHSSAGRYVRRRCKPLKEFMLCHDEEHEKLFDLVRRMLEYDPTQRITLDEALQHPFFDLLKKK
Chain of Protein disulfide-isomerase (P07237 whole entry): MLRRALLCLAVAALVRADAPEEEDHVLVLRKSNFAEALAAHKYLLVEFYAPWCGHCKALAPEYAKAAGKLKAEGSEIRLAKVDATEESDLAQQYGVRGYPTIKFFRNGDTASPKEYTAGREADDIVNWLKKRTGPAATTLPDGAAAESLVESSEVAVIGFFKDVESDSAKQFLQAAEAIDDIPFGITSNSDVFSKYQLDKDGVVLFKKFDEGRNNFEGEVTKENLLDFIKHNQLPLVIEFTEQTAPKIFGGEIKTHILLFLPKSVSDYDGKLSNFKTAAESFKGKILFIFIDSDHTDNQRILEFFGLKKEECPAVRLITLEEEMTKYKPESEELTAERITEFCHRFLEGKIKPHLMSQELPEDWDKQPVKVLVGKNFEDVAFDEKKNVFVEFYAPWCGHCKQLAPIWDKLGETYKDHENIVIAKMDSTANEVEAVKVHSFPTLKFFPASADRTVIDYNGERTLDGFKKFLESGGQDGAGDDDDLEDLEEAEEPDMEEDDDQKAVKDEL

N#Cc1cnn2c(-c3ccccc3)ccnc12
inactive: Ki [1] > 100 µM | Ki [3] > 100 µM | Ki [4] > 100 µM
active: Ki [2] 10 µM

CCOC(=O)c1ccc(NC(=O)Cn2ncc(Cl)c(Cl)c2=O)cc1
inconclusive: EC50 [15] 2.69 µM
active: IC50 [5] 1.47 µM | AC50 [6] 12.1 µM | CC50 [7] 6.68 µM | AC50 [8] 3.72 µM | AC50 [9] 46 µM | AC50 [10] 14.1 µM | AC50 (Paired box protein Pax-8) 6.64 µM | AC50 [11] 3.69 µM | AC50 [12] 2.32 µM | EC50 [13] 0.582 µM | EC50 (Protein RecA) 3.77 µM | CC50 [14] 8.45 µM | IC50 [16] 9.77 µM | EC50 [17] 2.06 µM | EC50 [18] 1.96 µM | AC50 [19] 5.4 µM | IC50 [20] 1.77 µM | CC50 [21] 3.21 µM | CC50 [22] 1.62 µM

C[C@H](CO)N1C[C@H](C)[C@H](CN(C)S(=O)(=O)c2ccc(F)cc2)Oc2ccc(NC(=O)Cc3cn(C)c4ccccc34)cc2C1=O
active: AC50 [23] 19.5 µM | AC50 [24] 5.29 µM

O=C1C(=O)N(Cc2ccc(Cl)c(Cl)c2)c2cc(Cl)ccc21
active: IC50 [25] 43.4 µM | IC50 [26] 53.1 µM

O=C(O)C1CC(c2c(F)cccc2Cl)=NO1 (stereo not given)
inactive: EC50 [27] > 100 µM | EC50 [28] > 100 µM

CS(=O)(=O)Nc1ccc2c(c1)C(=NO)c1ccccc1-2
active: Ki (Aurora kinase A) 0.398 µM | Ki [3] 0.794 µM | Ki (Aurora kinase B) 0.0398 µM

OCCc1ccc(Nc2ncnc3[nH]cc(-c4ccccc4)c23)cc1
active: Ki [29] 3.98 µM | Ki [30] 0.0794 µM
